Molecules are shown by their SMILES. ≈ marks a conversion by molar mass, not a printed value. Calls of active or inactive are those of the source. The rule behind the calls is not given here. Bounds are passed on as bounds.

13 compounds from ChEMBL document CHEMBL5365422 (Bioorg Med Chem Lett, 2023) can be followed below.

The target in series [1] is T1, Polyunsaturated fatty acid 5-lipoxygenase (Homo sapiens, UniProt P09917).
T1 sequence (P09917 whole entry): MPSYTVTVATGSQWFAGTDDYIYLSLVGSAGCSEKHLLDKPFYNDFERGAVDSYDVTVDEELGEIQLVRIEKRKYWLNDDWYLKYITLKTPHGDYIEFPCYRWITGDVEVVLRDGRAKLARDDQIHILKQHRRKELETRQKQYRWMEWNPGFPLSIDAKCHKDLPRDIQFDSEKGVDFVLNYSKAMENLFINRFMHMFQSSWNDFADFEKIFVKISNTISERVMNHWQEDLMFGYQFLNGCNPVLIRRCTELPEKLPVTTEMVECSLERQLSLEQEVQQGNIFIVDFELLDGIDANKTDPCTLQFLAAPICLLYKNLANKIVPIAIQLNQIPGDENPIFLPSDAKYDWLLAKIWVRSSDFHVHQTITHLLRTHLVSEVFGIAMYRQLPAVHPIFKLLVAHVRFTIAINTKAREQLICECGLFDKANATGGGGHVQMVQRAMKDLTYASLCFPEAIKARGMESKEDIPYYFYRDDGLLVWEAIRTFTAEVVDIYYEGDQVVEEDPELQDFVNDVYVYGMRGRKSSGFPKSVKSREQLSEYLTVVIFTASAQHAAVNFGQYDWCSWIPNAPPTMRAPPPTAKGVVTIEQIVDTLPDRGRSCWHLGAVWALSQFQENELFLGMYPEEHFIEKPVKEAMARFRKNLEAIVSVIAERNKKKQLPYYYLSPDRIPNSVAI
Description: Inhibition of 5-LOX (unknown orgin) using arachidonic acid as substrate incubated for 10 mins by colorimetric assay.

The target of a further series is Albumin (Homo sapiens, UniProt P02768). Description: Binding affinity to human serum albumin in phosphate buffer at pH 7.4 incubated at 298 K.
Chain of Albumin (P02768 whole entry): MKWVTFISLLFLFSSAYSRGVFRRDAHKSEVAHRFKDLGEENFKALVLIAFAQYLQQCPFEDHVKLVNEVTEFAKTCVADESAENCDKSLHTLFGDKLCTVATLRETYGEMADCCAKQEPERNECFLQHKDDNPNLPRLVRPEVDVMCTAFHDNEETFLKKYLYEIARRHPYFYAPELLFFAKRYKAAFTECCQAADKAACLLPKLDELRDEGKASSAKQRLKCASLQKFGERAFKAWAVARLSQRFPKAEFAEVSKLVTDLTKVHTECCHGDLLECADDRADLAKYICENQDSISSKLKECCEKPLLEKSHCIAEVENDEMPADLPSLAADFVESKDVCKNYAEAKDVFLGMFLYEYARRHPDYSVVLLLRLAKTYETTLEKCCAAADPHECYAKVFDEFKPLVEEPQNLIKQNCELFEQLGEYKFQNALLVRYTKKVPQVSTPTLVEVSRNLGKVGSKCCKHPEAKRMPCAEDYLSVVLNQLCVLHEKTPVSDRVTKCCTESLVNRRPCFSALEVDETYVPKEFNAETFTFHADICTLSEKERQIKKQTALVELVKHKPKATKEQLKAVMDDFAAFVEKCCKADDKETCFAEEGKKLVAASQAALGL
Series [2] has as its target T2, Polyunsaturated fatty acid 5-lipoxygenase (Homo sapiens) (UniProt P09917).
T2 sequence (whole entry): T1 sequence (P09917 whole entry)
In words: Binding affinity to 5-LOX (unknown origin).

Series [3] is described as follows: Stability of compound in human plasma assessed as drug degradation at 37 degC measured after 90 mins by LC-MS analysis. The series is classed as ADME, cell-free. The settings on record: read-out: Drug degradation.
For series [4], the system named is Panel NCI-60 (60 carcinoma cell lines). In words: Cytotoxicity against human Panel NCI-60 (60 carcinoma cell lines) cells assessed as reduction in cell viability. It counts as functional.
The nature of series [5]: Solubility of the compound in PBS buffer by UV spectrum based solubility assay. The series is classed as physicochemical.
Series [6] has as its target T2, Polyunsaturated fatty acid 5-lipoxygenase (Homo sapiens). Description: Competitive inhibition of 5-LOX (unknown origin) using arachidonic acid as substrate by Michaelis-Menten equation based kinetic analysis.
Series [7] can be described thus: Half life in human liver microsome by LC-MS/MS analysis. The series is classed as ADME. As to conditions: liver microsomes. Background: Liver microsomes are vesicles of endoplasmic reticulum, rich in cytochrome P450 enzymes.

By IC50 is commonly meant the midpoint of a concentration-inhibition curve. Higher therefore signals lower potency. Turning to `O=C(O)Cn1cc(Cc2c(O)n(-c3c(Cl)cccc3Cl)c3ccccc23)c2ccccc21`, the IC50 in series [1] was 1230 nM. Further, the K at Albumin was 5.2 10^4/M; in series [2] it was 2.5 10^8/M. Also, the metabolised at 1.5 h in series [3] worked out at 4%. In series [4], the LC50 (concentration killing 50% of cells) is over 100000 nM.
Take `COc1cc(CC2C(=O)N(c3c(Cl)cccc3Cl)c3ccccc32)cc(OC)c1OC` (stereo not drawn): in series [1], the IC50 was 260 nM. The K at Albumin is 6.9 10^4/M; in series [2] it was 0.9 10^8/M. Besides, the metabolised at 1.5 h in series [3] turned out to be 4%. The LC50 (concentration killing 50% of cells) in series [4] is over 100000 nM.
In series [1], `C#CCn1cc(Cc2c(O)n(-c3c(Cl)cccc3Cl)c3ccccc23)c2ccccc21` returned an IC50 of over 10000 nM. Besides, the K at Albumin was 1.1 10^4/M; in series [2], 3.1 10^8/M. Moreover, the metabolised at 1.5 h in series [3] amounted to 4%. Also, the LC50 (concentration killing 50% of cells) in series [4] is over 100000 nM.
Take `C=CCn1cc(Cc2c(O)n(-c3c(Cl)cccc3Cl)c3ccccc23)c2ccccc21`: in series [1], the IC50 is 70 nM. In addition, the results for the K (on Albumin; in series [2]) were 7.6 10^2/M and 1.8 10^8/M, respectively. Moreover, in series [3], the metabolised at 1.5 h was 4%. Moreover, the LC50 (concentration killing 50% of cells) in series [4] is over 100000 nM.
On the same counts, the results for `C#CCn1cccc1CC1c2ccccc2N(c2c(Cl)cccc2Cl)C1O` (stereo not drawn) are 250 nM, 4.1 10^4/M, 0.9 10^8/M, 4% and over 100000 nM.
`CCOC(=O)Cn1cccc1CC1c2ccccc2N(c2c(Cl)cccc2Cl)C1O` (stereo not drawn) gave an IC50 in series [1] of 1310 nM. For the same compound, the K on Albumin is 1.4 10^4/M; in series [2], 1.7 10^8/M. In addition, the metabolised at 1.5 h in series [3] came out at 4%. In series [4], the LC50 (concentration killing 50% of cells) was over 100000 nM.
The matching figures for `O=C(O)Cn1cccc1Cc1c(O)n(-c2c(Cl)cccc2Cl)c2ccccc12`: 430 nM, 1.4 10^4/M, 4.9 10^8/M, 4% and over 100000 nM.
The matching figures for `O=C1C(Cc2c[nH]c3ccccc23)c2ccccc2N1c1c(Cl)cccc1Cl` (stereo not drawn): 310 nM, 1.1 10^3/M, 4.2 10^8/M, 4% and over 100000 nM.
On the same counts, the results for `C=CCn1cccc1CC1C(=O)N(c2c(Cl)cccc2Cl)c2ccccc21` (stereo not drawn) are 1770 nM, 1.7 10^4/M, 1.4 10^8/M, 4% and over 100000 nM.
Regarding `O=C1C(Cc2cccn2Cc2ccccc2)c2ccccc2N1c1c(Cl)cccc1Cl` (stereo not drawn), the midpoint of inhibition in series [1], the IC50, lay at 490 nM. The K on Albumin was 1.2 10^4/M; in series [2], 2.4 10^8/M. Moreover, the metabolised at 1.5 h in series [3] stood at 4%. Also, the LC50 (concentration killing 50% of cells) in series [4] was over 100000 nM.
Regarding `CCOC(=O)Cn1cc(Cc2c(O)n(-c3c(Cl)cccc3Cl)c3ccccc23)c2ccccc21`, the IC50 in series [1] was 630 nM. Further, the figures for the K (on Albumin; in series [2]) were 2.7 10^3/M and 4.5 10^8/M, respectively. Besides, the metabolised at 1.5 h in series [3] is 4%. The LC50 (concentration killing 50% of cells) in series [4] is over 100000 nM.
The solubility is how much of the substance goes into solution per volume. Lower therefore signals a poorly soluble substance. The term half-life denotes the time in which the quantity being followed falls by half. A lower half-life goes with fast loss. In series [1], `O=C1C(Cc2ccc[nH]2)c2ccccc2N1c1c(Cl)cccc1Cl` (stereo not drawn) gave an IC50 of 30 nM. Also, the solubility in series [5] amounted to 26 µM (≈ 9.29 µg/mL). Also, the K at Albumin was 3.8 10^4/M; in series [2], 1.1 10^8/M. In series [6], the inhibition result is “Active”. Besides, in series [3], the metabolised at 1.5 h is 4%. Moreover, the half-life in series [7] was 1.5 h. Also, the LC50 (concentration killing 50% of cells) in series [4] is over 100000 nM.
On to `Oc1c(Cc2cn(Cc3ccccc3)c3ccccc23)c2ccccc2n1-c1c(Cl)cccc1Cl`, for which the midpoint of inhibition in series [1], the IC50, lay at 100 nM. The K on Albumin was 1.4 10^4/M; in series [2], 0.8 10^8/M. Also, the metabolised at 1.5 h in series [3] was found to be 4%. Also, in series [4], the LC50 (concentration killing 50% of cells) was over 100000 nM.
